Results taken from ChEMBL document CHEMBL1201862, “PubChem BioAssay data set” (2004).
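Step 1: Grow cells in 96-well plates. Step 2: Expose to compound for 48 hours at 5 concentrations. Step 3: Interpolate endpoints linearly; if unreached, use highest concentration. GI50: concentration for 50% inhibition of growth.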 Calls of active or inactive are those of the source. No stated cut-off is given here; in the data, active = GI50 up to about 1.1 µM and inactive = higher.

Key:
Experiment in all cases: DTP human tumour cell line panel, 48 h
786-0 = test system: 786-0
A498 = test system: A498
A549 = test system: A549
EKVX = test system: EKVX
HOP-62 = test system: HOP-62
KM12 = test system: KM12
LXFL 529 = test system: LXFL 529
M14 = test system: M14
MDA-MB-435 = test system: MDA-MB-435
OVCAR-4 = test system: OVCAR-4
OVCAR-5 = test system: OVCAR-5
OVCAR-8 = test system: OVCAR-8
SF-268 = test system: SF-268
SF-295 = test system: SF-295
SN12C = test system: SN12C
SNB-19 = test system: SNB-19
SW-620 = test system: SW-620
U-251 = test system: U-251
UACC-257 = test system: UACC-257
HOP-92 = test system: HOP-92

| Structure (SMILES) | GI50 (786-0) | GI50 (A498) | GI50 (A549) | GI50 (EKVX) | GI50 (HOP-62) | GI50 (KM12) | GI50 (LXFL 529) | GI50 (M14) | GI50 (MDA-MB-435) | GI50 (OVCAR-4) | GI50 (OVCAR-5) | GI50 (OVCAR-8) | GI50 (SF-268) | GI50 (SF-295) | GI50 (SN12C) | GI50 (SNB-19) | GI50 (SW-620) | GI50 (U-251) | GI50 (UACC-257) | GI50 (HOP-92) |
| --- | --- | --- | --- | --- | --- | --- | --- | --- | --- | --- | --- | --- | --- | --- | --- | --- | --- | --- | --- | --- |
| Cc1cc2c(Br)cc(Br)c(O)c2nc1C(=O)c1ccccc1 | 10.2 µM (inactive) | 20.7 µM (inactive) | 14.4 µM (inactive) | > 51.6 µM (inactive) | 14 µM (inactive) | 22.3 µM (inactive) | 21.1 µM (inactive) | > 43.3 µM (inactive) | 43.1 µM (inactive) | 29.3 µM (inactive) | > 45.1 µM (inactive) | 35 µM (inactive) | 28.3 µM (inactive) | 10.6 µM (inactive) | 20.2 µM (inactive) | 24.9 µM (inactive) | 55.8 µM (inactive) | 14.4 µM (inactive) | 24.5 µM (inactive) | – |
| CCC1(OC(=O)CNC)C(=O)OCc2c1cc1n(c2=O)Cc2cc3ccccc3nc2-1 (stereo not drawn) | < 0.01 µM (active) | < 0.0179 µM (active) | < 0.01 µM (active) | 0.127 µM (active) | < 0.01 µM (active) | 0.0685 µM (active) | 0.207 µM (active) | < 0.0105 µM (active) | 0.0234 µM (active) | 0.0977 µM (active) | 0.0247 µM (active) | 0.0126 µM (active) | < 0.01 µM (active) | < 0.01 µM (active) | < 0.01 µM (active) | < 0.01 µM (active) | < 0.01 µM (active) | < 0.01 µM (active) | 0.0393 µM (active) | 0.0491 µM (active) |
| CCCCCCCc1cc(OC(=O)c2c(C)cc(OC)cc2O)cc(O)c1C(=O)O | 19 µM (inactive) | 19.1 µM (inactive) | 29.9 µM (inactive) | 25.2 µM (inactive) | 18.5 µM (inactive) | 23.1 µM (inactive) | 18.2 µM (inactive) | 21.3 µM (inactive) | – | 28.1 µM (inactive) | 16.6 µM (inactive) | 27.1 µM (inactive) | 20.2 µM (inactive) | 19.3 µM (inactive) | 26.6 µM (inactive) | 26.4 µM (inactive) | 26.2 µM (inactive) | 17.9 µM (inactive) | 30.4 µM (inactive) | 26 µM (inactive) |
